Experimental data taken from US20170152239A1, “BENZAMIDE AND HETEROBENZAMIDE COMPOUNDS” (PFIZER INC., priority 2012, published 2017).

Molecular target: WT EZH2 (EZH2 4 protein complex: EZH2, EED, SUZ12, RbAp48) (Homo sapiens, UniProt O75530+Q09028+Q15022+Q15910)
Assay: WT EZH2 nucleosome assay
Format: biochemical
Conditions: nucleosome assay, 5 nM EZH2 4-protein complex, 1.5 μM SAM; read-out: WT EZH2 IC50
Summary of the method: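 Radiometric methyltransferase assay: 5 nM EZH2 four-protein complex, 1.5 μM 3H-SAM, 25 μg/mL HeLa oligonucleosomes, 50 nM recombinant H1 in 100 mM Tris pH 8.5, 4 mM DTT, 0.01% Tween-20. 60 min reaction, TCA quench, filter capture, scintillation counting; IC50 from 11-point 4-parameter fit; % effect at 20 μM.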

Chain of WT EZH2 (EZH2 4 protein complex: EZH2, EED, SUZ12, RbAp48) (Q15910 whole entry): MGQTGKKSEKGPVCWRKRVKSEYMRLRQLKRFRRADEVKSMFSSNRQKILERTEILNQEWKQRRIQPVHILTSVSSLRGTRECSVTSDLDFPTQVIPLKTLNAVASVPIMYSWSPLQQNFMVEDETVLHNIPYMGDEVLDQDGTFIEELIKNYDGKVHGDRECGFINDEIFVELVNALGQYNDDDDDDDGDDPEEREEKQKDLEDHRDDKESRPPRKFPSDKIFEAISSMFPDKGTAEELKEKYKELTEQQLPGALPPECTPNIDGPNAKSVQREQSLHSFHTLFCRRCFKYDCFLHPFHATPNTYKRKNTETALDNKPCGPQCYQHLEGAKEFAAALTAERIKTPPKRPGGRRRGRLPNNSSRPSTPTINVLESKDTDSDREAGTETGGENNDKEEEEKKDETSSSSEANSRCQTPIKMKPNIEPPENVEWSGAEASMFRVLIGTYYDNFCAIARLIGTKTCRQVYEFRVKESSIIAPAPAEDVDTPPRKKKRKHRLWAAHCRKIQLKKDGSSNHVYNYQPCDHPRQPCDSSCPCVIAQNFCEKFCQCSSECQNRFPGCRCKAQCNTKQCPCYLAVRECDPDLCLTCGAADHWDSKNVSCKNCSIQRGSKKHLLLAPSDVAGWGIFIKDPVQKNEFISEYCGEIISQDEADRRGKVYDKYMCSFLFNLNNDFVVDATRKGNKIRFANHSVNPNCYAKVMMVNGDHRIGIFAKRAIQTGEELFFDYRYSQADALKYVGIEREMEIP
Chain of WT EZH2 (EZH2 4 protein complex: EZH2, EED, SUZ12, RbAp48) (O75530 whole entry partner): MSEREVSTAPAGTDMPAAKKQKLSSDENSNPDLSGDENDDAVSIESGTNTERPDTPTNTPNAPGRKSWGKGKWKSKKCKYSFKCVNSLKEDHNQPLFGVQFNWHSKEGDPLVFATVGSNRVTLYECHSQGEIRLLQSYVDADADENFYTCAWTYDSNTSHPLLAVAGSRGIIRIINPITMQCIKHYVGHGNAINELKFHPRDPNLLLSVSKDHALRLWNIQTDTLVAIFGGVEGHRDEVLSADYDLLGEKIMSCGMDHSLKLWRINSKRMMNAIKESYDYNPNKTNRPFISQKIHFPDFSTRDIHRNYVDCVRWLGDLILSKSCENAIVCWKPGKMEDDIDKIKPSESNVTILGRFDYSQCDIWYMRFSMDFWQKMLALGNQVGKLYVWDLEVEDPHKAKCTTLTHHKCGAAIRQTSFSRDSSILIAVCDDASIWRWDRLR
Chain of WT EZH2 (EZH2 4 protein complex: EZH2, EED, SUZ12, RbAp48) (Q15022 whole entry partner): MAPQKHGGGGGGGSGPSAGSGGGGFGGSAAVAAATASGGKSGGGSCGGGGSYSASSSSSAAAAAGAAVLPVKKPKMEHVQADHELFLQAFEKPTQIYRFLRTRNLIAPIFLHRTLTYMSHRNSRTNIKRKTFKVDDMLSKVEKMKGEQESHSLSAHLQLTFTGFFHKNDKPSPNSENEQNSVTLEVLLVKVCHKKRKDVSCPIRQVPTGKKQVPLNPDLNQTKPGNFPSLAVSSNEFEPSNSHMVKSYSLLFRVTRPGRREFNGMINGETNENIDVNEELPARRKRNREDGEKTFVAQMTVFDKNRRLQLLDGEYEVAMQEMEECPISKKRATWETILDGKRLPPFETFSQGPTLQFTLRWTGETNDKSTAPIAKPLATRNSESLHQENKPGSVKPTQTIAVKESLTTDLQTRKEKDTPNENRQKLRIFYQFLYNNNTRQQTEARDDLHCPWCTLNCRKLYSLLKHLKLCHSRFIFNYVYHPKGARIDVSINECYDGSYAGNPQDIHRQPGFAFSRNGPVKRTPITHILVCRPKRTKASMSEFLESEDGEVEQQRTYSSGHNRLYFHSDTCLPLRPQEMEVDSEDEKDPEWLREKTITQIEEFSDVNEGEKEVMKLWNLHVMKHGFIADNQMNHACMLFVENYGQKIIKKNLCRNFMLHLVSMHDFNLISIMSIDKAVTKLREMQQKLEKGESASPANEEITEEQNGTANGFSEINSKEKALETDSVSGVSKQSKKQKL
Chain of WT EZH2 (EZH2 4 protein complex: EZH2, EED, SUZ12, RbAp48) (Q09028 whole entry partner): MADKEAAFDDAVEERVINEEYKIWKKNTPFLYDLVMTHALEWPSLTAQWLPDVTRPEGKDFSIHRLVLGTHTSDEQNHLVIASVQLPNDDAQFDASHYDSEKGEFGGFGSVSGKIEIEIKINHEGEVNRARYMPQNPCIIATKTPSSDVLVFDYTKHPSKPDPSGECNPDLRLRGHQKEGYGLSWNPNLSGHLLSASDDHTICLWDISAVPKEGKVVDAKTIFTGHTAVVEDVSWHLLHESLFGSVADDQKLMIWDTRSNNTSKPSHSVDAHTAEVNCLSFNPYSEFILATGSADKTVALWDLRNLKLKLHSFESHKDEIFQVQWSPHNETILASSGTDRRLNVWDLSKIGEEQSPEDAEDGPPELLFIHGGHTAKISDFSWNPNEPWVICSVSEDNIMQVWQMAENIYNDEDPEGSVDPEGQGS

Compound	IC50
Cc1cc(C)c(CNC(=O)c2cccc(-n3cnnc3C)c2C)c(=O)[nH]1 [Example 111, N-[(4,6-dimethyl-2-oxo-1,2-dihydropyridin-3-yl)methyl]-2-methyl-3-(3-methyl-4H-1,2,4-triazol-4-yl)benzamide]	24.8 µM
Cc1cc(C)c(CNC(=O)c2ncnc(N3CCCC3C(C)C)c2C)c(=O)[nH]1 (centres unmarked) [Example 112, N-[(4,6-dimethyl-2-oxo-1,2-dihydropyridin-3-yl)methyl]-6-(2-isopropylpyrroli-din-1-yl)-5-methylpyrimidine-4-carboxamide]	25.3 µM
Cc1cc(C)c(CNC(=O)c2ncnc(N3CCC[C@@H]3C#N)c2C)c(=O)[nH]1 [Example 116, 6-[(2R)-2-cyanopyrrolidin-1-yl]-N-[(4,6-dimethyl-2-oxo-1,2-dihydropyridin-3-yl)methyl]-5-methyl-pyrimidine-4-carboxamide]	29.2 µM
Cc1cc(C(F)(F)F)c(CNC(=O)c2cccc(-c3ccnn3C)c2Cl)c(=O)[nH]1 [Example 121, 2-chloro-N-{[6-methyl-2-oxo-4-(trifluoromethyl)-1,2-dihydropyridin-3-yl]methyl}-3-(1-methyl-1H-pyrazol-5-yl)benzamide]	42.1 µM
Cc1cc(C)c(CNC(=O)c2ncnc(N3CCCC3C3CC3)c2C)c(=O)[nH]1 (centres unmarked) [Example 122, 6-(2-cyclopropyl-pyrrolidin-1-yl)-N-[(4,6-dimethyl-2-oxo-1,2-dihydropyridin-3-yl)methyl]-5-methylpyrimidine-4-carboxamide]	43.6 µM
Cc1cc(C)c(CNC(=O)c2ncnc(N3CCOCC3)c2C)c(=O)[nH]1 [Example 123, N-[(4,6-dimethyl-2-oxo-1,2-dihydropyridin-3-yl)methyl]-5-methyl-6-morpholin-4-ylpyrimidine-4-carboxamide]	44.4 µM
Cc1cc(C)c(CNC(=O)c2cccc(OC(C)C)c2F)c(=O)[nH]1 [Example 130, N-[(4,6-dimethyl-2-oxo-1,2-dihydropyridin-3-yl)methyl]-2-fluoro-3-isopropoxy-benzamide]	67.9 µM
COC[C@H]1CCCN1c1ncnc(C(=O)NCc2c(C)cc(C)[nH]c2=O)c1C [Example 131, N-[(4,6-dimethyl-2-oxo-1,2-dihydropyridin-3-yl)methyl]-6-[(2R)-2-(methoxymeth-yl)pyrrolidin-1-yl]-5-methylpyrimidine-4-carboxamide]	77.8 µM
COCC1CCN(c2ncnc(C(=O)NCc3c(C)cc(C)[nH]c3=O)c2C)C1 (centres unmarked) [Example 132, N-[(4,6-dimethyl-2-oxo-1,2-dihydropyridin-3-yl)methyl]-6-[3-(methoxymeth-yl)pyrrolidin-1-yl]-5-methylpyrimidine-4-carboxamide]	81.4 µM
Cc1cc(C)c(CNC(=O)c2ncnc(N3CCC[C@@H]3CO)c2C)c(=O)[nH]1 [Example 133, N-[(4,6-dimethyl-2-oxo-1,2-dihydropyridin-3-yl)methyl]-6-[(2R)-2-(hydroxymeth-yl)pyrrolidin-1-yl]-5-methylpyrimidine-4-carboxamide]	87.5 µM
CCOc1cccc(C(=O)NCc2c(C)cc(C)[nH]c2=O)c1F [Example 134, N-[(4,6-dimethyl-2-oxo-1,2-dihydropyridin-3-yl)methyl]-3-ethoxy-2-fluoro-benzamide]	127 µM
Cc1cc(C)c(CNC(=O)c2ncnc(N3CC[C@H]4C[C@H]43)c2C)c(=O)[nH]1 [Example 136, 6-[(1R,5S)-2-azabicyclo[3.1.0]hex-2-yl]-N-[(4,6-dimethyl-2-oxo-1,2-dihydropyridin-3-yl)methyl]-5-methyl-pyrimidine-4-carboxamide]	161 µM
CC(C)Oc1cccc(C(=O)NCc2ccc[nH]c2=O)c1Cl [Example 139, 2-chloro-3-isopropoxy-N-[(2-oxo-1,2-dihydropyridin-3-yl)methyl]benz-amide]	> 200 µM
COc1ccc(OC)c(C(=O)NCc2c(C)cc(C)[nH]c2=O)c1OC [Example 140, N-[(4,6-dimethyl-2-oxo-1,2-dihydropyridin-3-yl)methyl]-2,3,6-trimethoxy-benzamide]	> 200 µM
Cc1cc(C(F)(F)F)[nH]c(=O)c1CNC(=O)c1cc(Cl)cc(-c2ccnn2C)c1C [Example 142, 5-chloro-2-methyl-N-{[4-methyl-2-oxo-6-(trifluoromethyl)-1,2-dihydropyridin-3-yl]methyl}-3-(1-methyl-1H-pyrazol-5-yl)benzamide]	> 200 µM
CC(=O)N[C@H]1CCN(c2ncnc(C(=O)NCc3c(C)cc(C)[nH]c3=O)c2C)C1 [Example 143, 6-[(3S)-3-azetamido-pyrrolidin-1-yl]-N-[(4,6-dimethyl-2-oxo-1,2-dihydropyridin-3-yl)methyl]-5-methylpyrimidine-4-carboxamide]	> 200 µM
Cc1cc(C)c(CNC(=O)c2ncnc(N3CCC[C@@H]3c3ccccn3)c2C)c(=O)[nH]1 [Example 144, N-[(4,6-dimethyl-2-oxo-1,2-dihydropyridin-3-yl)methyl]-5-methyl-6-[(2R)-2-pyridin-2-ylpyrrolidin-1-yl]pyrimidine-4-carboxamide]	> 200 µM
Cc1cc(C)c(CNC(=O)c2ncnc(N3CCC[C@@H]3C(N)=O)c2C)c(=O)[nH]1 [Example 145, 6-[(2R)-2-carbamoyl-pyrrolidin-1-yl]-N-[(4,6-dimethyl-2-oxo-1,2-dihydropyridin-3-yl)methyl]-5-methylpyrimi-dine-4-carboxamide]	> 200 µM
Cc1noc([C@H]2CCCN2c2ncnc(C(=O)NCc3c(C)cc(C)[nH]c3=O)c2C)n1 [Example 146, N-[(4,6-dimethyl-2-oxo-1,2-dihydropyridin-3-yl)methyl]-5-methyl-6-[(2R)-2-(3-methyl-1,2,4-oxadiazol-5-yl)pyrrolidin-1-yl]pyrimidine-4-carboxamide]	> 200 µM
CCn1ncc(C)c1-c1cccc(C(=O)NCc2c(C)c(Cl)c(C)[nH]c2=O)c1C [Example 148, N-[(5-chloro-4,6-dimethyl-2-oxo-1,2-dihydropyridin-3-yl)methyl]-3-(1-ethyl-4-methyl-1H-pyrazol-5-yl)-2-methyl-benzamide]	> 200 µM

Second part, the compound after the results:

IC50	Compound
21.8 µM	Cc1cc(C)c(CNC(=O)c2ncnc(N3CC[C@H](C)C3)c2C)c(=O)[nH]1 [Example 107, N-[(4,6-dimethyl-2-oxo-1,2-dihydropyridin-3-yl)methyl]-5-methyl-6-[(3S)-3-methylpyrrolidin-1-yl]pyrimidine-4-carboxamide]
22.2 µM	COc1nc(C(=O)NCc2c(C)cc(C)[nH]c2=O)c(C)c(-c2ccnn2C)n1 [Example 108, N-[(4,6-dimethyl-2-oxo-1,2-dihydropyridin-3-yl)methyl]-2-methoxy-5-methyl-6-(1-methyl-1H-pyrazol-5-yl)pyrimidine-4-carboxamide]
23 µM	Cc1cc(C)c(CNC(=O)c2nc(OCCN3CC(F)C3)nc(-c3ccnn3C)c2C)c(=O)[nH]1 [Example 109, N-[(4,6-dimethyl-2-oxo-1,2-dihydropyridin-3-yl)methyl]-2-[2-(3-fluoroazetidin-1-yl)ethoxy]-5-methyl-6-(1-methyl-1H-pyrazol-5-yl)pyrimidine-4-carboxamide]
23.2 µM	Cc1cc(C)c(CNC(=O)c2nccc(-c3ccnn3C)c2C)c(=O)[nH]1 [Example 110, N-[(4,6-dimethyl-2-oxo-1,2-dihydropyridin-3-yl)methyl]-3-methyl-4-(1-methyl-1H-pyrazol-5-yl)pyridine-2-carboxamide]
28.4 µM	Cc1cc(C)c(CNC(=O)c2nc(O[C@H]3CCOC3)nc(-c3ccnn3C)c2C)c(=O)[nH]1 [Example 114, N-[(4,6-dimethyl-2-oxo-1,2-dihydropyridin-3-yl)methyl]-5-methyl-6-(1-methyl-1H-pyrazol-5-yl)-2-[(3S)-tetrahydro-furan-3-yloxy]pyrimidine-4-carboxamide]
28.7 µM	Cc1cc(C)c(CNC(=O)c2ncnc(-c3ccnn3C)c2Cl)c(=O)[nH]1 [Example 115, 5-chloro-N-[(4,6-dimethyl-2-oxo-1,2-dihydropyridin-3-yl)methyl]-6-(1-methyl-1H-pyrazol-5-yl)pyrimidine-4-carboxamide]
31.1 µM	Cc1cc(C)c(CNC(=O)c2nc(OCCN3CC(F)(F)C3)nc(-c3ccnn3C)c2C)c(=O)[nH]1 [Example 117, 2-[2-(3,3-difluoroazetidin-1-yl)ethoxy]-N-[(4,6-dimethyl-2-oxo-1,2-dihydropyridin-3-yl)methyl]-5-methyl-6-(1-methyl-1H-pyrazol-5-yl)pyrimidine-4-carboxamide]
31.8 µM	CCCc1cc(C)[nH]c(=O)c1CNC(=O)c1nc(C2CC2)nc(-c2ccnn2C)c1C [Example 118, 2-cyclopropyl-5-methyl-N-[(6-methyl-2-oxo-4-propyl-1,2-dihydropyridin-3-yl)methyl]-6-(1-methyl-1H-pyrazol-5-yl)pyrimidine-4-carboxamide]
40.5 µM	Cc1cc(C)c(CNC(=O)c2ncnc(N3CC[C@@H](C)C3)c2C)c(=O)[nH]1 [Example 120, N-[(4,6-dimethyl-2-oxo-1,2-dihydropyridin-3-yl)methyl]-5-methyl-6-[(3R)-3-methylpyrrolidin-1-yl]pyrimidine-4-carboxamide]
49.3 µM	Cc1cc(C)c(CNC(=O)c2ncnc(-c3ccnn3C)c2C)c(=O)[nH]1 [Example 124, N-[(4,6-dimethyl-2-oxo-1,2-dihydropyridin-3-yl)methyl]-5-methyl-6-(1-methyl-1H-pyrazol-5-yl)pyrimidine-4-carboxamide]
50.7 µM	Cc1cc(C)c(CNC(=O)c2ncnc(N3CCCC3)c2C)c(=O)[nH]1 [Example 125, N-[(4,6-dimethyl-2-oxo-1,2-dihydropyridin-3-yl)methyl]-5-methyl-6-pyrrolidin-1-ylpyrimidine-4-carboxamide]
> 200 µM	Cc1ccc(CNC(=O)c2nc(C3CC3)nc(-c3ccnn3C)c2C)c(=O)[nH]1 [Example 141, 2-cyclopropyl-5-methyl-N-[(6-methyl-2-oxo-1,2-dihydropyridin-3-yl)methyl]-6-(1-methyl-1H-pyrazol-5-yl)pyrimidine-4-carboxamide]
